Data from patent US20260042731A1, “(2,4-DICHLOROPHENOXY)ACETIC ACID ANALOGS” (CORTEVA AGRISCIENCE LLC, priority 2022, published 2026).
Where two headings read alike, the source gives them in different places.

Legend:
[1] = Volatility of compounds measured by thermogravimetric analysis (TGA); type: physicochemical
[2] = system: Abutilon theophrasti (ABUTH), velvetleaf; assay: Postemergence herbicide evaluation, growth of Abutilon theophrasti (ABUTH); type: in vivo; settings: Abutilon theophrasti, post-emergence, read-out: AVE. ABUTH
[3] = system: Ambrosia artemisiifolia (AMBEL), common ragweed; assay: Postemergence herbicide evaluation, growth of Ambrosia artemisiifolia (AMBEL); type: in vivo; settings: Ambrosia artemisiifolia, post-emergence, read-out: AVE. AMBEL
[4] = system: Chenopodium album (CHEAL), common lambsquarters; assay: Postemergence herbicide evaluation, growth of Chenopodium album (CHEAL); type: in vivo; settings: Chenopodium album, post-emergence, read-out: Ave. CHEAL
[5] = system: weeds ABUTH, AMATA, AMBEL, CHEAL, ERICA; assay: Postemergence herbicide evaluation, overall average % weed control across ABUTH, AMATA, AMBEL, CHEAL and ERICA; type: in vivo; settings: post-emergence, read-out: Overall Ave % Weed Control
[6] = system: Amaranthus rudis (AMATA), tall water hemp; assay: Postemergence herbicide evaluation, growth of Amaranthus rudis (AMATA); type: in vivo; settings: Amaranthus tuberculatus, post-emergence, read-out: Ave. AMATA

SMILES	TGA Data (rate of weight loss, volatility) [1]	pest or weed control at 280 g/ha ([2]; 504 h)	pest or weed control at 560 g/ha ([2]; 504 h)	pest or weed control at 280 g/ha ([3]; 504 h)	pest or weed control at 560 g/ha ([3]; 504 h)	pest or weed control at 280 g/ha ([4]; 504 h)	pest or weed control at 560 g/ha ([4]; 504 h)	pest or weed control at 280 g/ha ([5]; 504 h)	pest or weed control at 560 g/ha ([5]; 504 h)	pest or weed control at 280 g/ha ([6]; 504 h)	pest or weed control at 560 g/ha ([6]; 504 h)	other results
O=C(COc1ccc(Cl)cc1Cl)OCCCCCCOC(=O)COc1ccc(Cl)cc1Cl [Compound B12]	0.2274 µg/min	55%	65%	100%	100%	96.5%	90%	82%	82.9%	62.5%	62.5%	
O=C(COc1ccc(Cl)cc1Cl)OCCOC(=O)COc1ccc(Cl)cc1Cl [Compound B9]	0.1482 µg/min	98.5%	75%	100%	100%	97.5%	92.5%	92.5%	89.9%	70%	82.5%	pest or weed control at 280 g/ha ([2]; 168 h): 57.5%; pest or weed control at 560 g/ha ([2]; 168 h): 57.5%; pest or weed control at 280 g/ha ([2]; 336 h): 77.5%; pest or weed control at 560 g/ha ([2]; 336 h): 70%; pest or weed control at 280 g/ha ([3]; 168 h): 77.5%; pest or weed control at 560 g/ha ([3]; 168 h): 74%; pest or weed control at 280 g/ha ([3]; 336 h): 70%; pest or weed control at 560 g/ha ([3]; 336 h): 85%; pest or weed control at 280 g/ha ([4]; 168 h): 82.5%; pest or weed control at 560 g/ha ([4]; 168 h): 77.5%; pest or weed control at 280 g/ha ([4]; 336 h): 94%; pest or weed control at 560 g/ha ([4]; 336 h): 95%; pest or weed control at 280 g/ha ([5]; 168 h): 75%; pest or weed control at 560 g/ha ([5]; 168 h): 72.3%; pest or weed control at 280 g/ha ([5]; 336 h): 86.5%; pest or weed control at 560 g/ha ([5]; 336 h): 86.6%; pest or weed control at 280 g/ha ([6]; 168 h): 72.5%; pest or weed control at 560 g/ha ([6]; 168 h): 77.5%; pest or weed control at 280 g/ha ([6]; 336 h): 91%; pest or weed control at 560 g/ha ([6]; 336 h): 90%
